One test addresses T1, CDK6-CYCLIND3 (Homo sapiens, UniProt Q00534).
T1 construct: purchased Carna
The test is described as follows: Microfluidic LabChip kinase inhibition assay, CDK6-CyclinD3. It counts as biochemical. To be noted: Table 2; 300 μM ATP, 2 nM enzyme; read-out: CDK6 IC50.

The next test addresses CDK4-CYCLIND1 (Homo sapiens, UniProt P11802). Kind of test: Microfluidic LabChip kinase inhibition assay, CDK4-CyclinD1. To be noted: CDK4 IC50 (μM), Table 2; 200 μM ATP, 1 nM enzyme.

pIC50: −log10 of the molar value.

The results in this text go back to patent US20230065740A1, “CYCLIN-DEPENDENT KINASE INHIBITORS” (SPV THERAPEUTICS INC., priority 2018, published 2023).

As usually defined, the pIC50 is the negative decadic logarithm of the IC50, by convention in mol/L. In general, IC50 refers to the concentration that inhibits the measured activity by half.

CDK4-CYCLIND1, sequence (P11802 whole entry): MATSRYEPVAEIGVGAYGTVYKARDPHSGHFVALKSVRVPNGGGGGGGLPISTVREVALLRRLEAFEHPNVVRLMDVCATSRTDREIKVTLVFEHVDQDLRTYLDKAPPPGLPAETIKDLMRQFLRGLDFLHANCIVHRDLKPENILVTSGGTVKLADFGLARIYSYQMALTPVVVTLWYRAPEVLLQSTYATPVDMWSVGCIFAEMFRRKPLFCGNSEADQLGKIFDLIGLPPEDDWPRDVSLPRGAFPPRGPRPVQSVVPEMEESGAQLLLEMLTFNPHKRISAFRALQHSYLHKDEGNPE
CDK4-CYCLIND1, sequence (P24385 whole entry partner): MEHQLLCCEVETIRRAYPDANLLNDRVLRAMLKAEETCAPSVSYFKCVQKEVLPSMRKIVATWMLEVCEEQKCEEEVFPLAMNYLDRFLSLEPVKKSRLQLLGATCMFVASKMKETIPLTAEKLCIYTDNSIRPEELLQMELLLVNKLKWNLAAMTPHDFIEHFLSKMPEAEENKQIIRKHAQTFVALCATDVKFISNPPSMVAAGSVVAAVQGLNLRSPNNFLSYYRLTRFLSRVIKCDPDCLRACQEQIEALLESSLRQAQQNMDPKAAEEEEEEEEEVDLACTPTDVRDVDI
T1 sequence (Q00534 whole entry): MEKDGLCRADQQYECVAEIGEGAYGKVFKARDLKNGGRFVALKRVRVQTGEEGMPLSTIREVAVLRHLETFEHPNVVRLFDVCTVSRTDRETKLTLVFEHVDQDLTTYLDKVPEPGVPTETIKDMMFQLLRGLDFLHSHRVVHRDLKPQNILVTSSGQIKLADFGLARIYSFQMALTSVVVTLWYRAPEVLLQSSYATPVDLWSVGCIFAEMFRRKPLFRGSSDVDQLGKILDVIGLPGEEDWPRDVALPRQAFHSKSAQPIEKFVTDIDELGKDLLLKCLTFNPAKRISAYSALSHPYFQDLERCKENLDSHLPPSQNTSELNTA
T1 sequence (P30281 whole entry partner): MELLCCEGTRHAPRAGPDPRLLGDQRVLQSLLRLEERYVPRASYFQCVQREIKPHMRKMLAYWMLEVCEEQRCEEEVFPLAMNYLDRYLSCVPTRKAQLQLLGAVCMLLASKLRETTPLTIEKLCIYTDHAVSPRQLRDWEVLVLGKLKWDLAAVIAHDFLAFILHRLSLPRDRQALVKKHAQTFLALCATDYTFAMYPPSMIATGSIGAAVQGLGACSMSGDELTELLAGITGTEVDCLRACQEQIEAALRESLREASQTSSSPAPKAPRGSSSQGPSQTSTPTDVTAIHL
Procedure for CDK4-CYCLIND1: Inhibition assays were performed using microfluidic LabChip 300 Drug Discovery System from Caliper Life Sciences. […] The assay has a total volume of 10 μL consisting of 5 μL of enzyme and buffer and 5 μL of substrate and buffer. The test compounds were diluted in 100% dimethylsulfoxide (DMSO) using 3-fold dilution steps. […] Compounds were tested in a single well for each dilution and the final concentration of DMSO was maintained at 1%.
The assay buffer contained 100 mM HEPES, pH 7.5, 0.01% Triton X-100, 0.1% bovine serum albumin (BSA), 5 mM MgCl2; 1 mM dithiothreitol (DTT), 10 μM sodium orthovanadate, and 10 μM β-glycerophosphate.
The assay was conducted by adding 5 μL of enzyme, adenosine triphosphate (ATP) and buffer to an assay plate. A 100 nL aliquot of the diluted compounds were added to the plate. The assay was initiated by the addition of 5 μL of phosphoenolpyruvate substrate (PEP) in buffer. […] The reaction was terminated by the addition of EDTA. The plates were analyzed using a Caliper LabChip 3000.

`CN1CCN(c2ccc(Nc3ncc4c(n3)N(C3CCCC3)C3(CCCN(Cc5ccccc5)C3=O)C4)c(F)c2)CC1` (centres unmarked) [Compound C42, 1-benzyl-7′-cyclopentyl-2′-((2-fluoro-4-(4-methylpiperazin-1-yl)phenyl)amino)-5′,7′-dihydrospiro[piperidine-3,6′-pyrrolo[2,3-d]pyrimidin]-2-one]: the negative logarithm of the IC50 (pIC50) at CDK6-CYCLIND3 was 4.92. This compound also gave an IC50 at CDK4-CYCLIND1 of 4.46 µM.
Take `O=C1NCCC12Cc1cnc(Nc3ccc(N4CCNCC4)cc3)nc1N2C1CCCC1` (centres unmarked) [Compound C43, 7′-cyclopentyl-2′-((4-(piperazin-1-yl)phenyl)amino)-5′,7′-dihydrospiro[pyrrolidine-3,6′-pyrrolo[2,3-d]pyrimidin]-2-one]: the pIC50 on CDK6-CYCLIND3 was 6.37. Also, half-maximal inhibition against CDK4-CYCLIND1 (IC50) required 0.0633 µM.
Consider `O=C1NCCCC12Cc1cnc(Nc3cc(C(F)(F)F)c(N4CCNCC4)cn3)nc1N2C1CCCC1` (centres unmarked) [Compound C44, 7′-cyclopentyl-2′-((5-(piperazin-1-yl)-4-(trifluoromethyl)pyridin-2-yl)amino)-5′,7′-dihydrospiro[piperidine-3,6′-pyrrolo[2,3-d]pyrimidin]-2-one], for which the pIC50 on CDK6-CYCLIND3 was < 4.52. Moreover, the IC50 at CDK4-CYCLIND1 is > 30 µM.
In the same order, the values of `CN1CCN(c2ccc(Nc3ncc4c(n3)N(C3CCCC3)C3(CCNC3=O)C4)cc2)CC1` (centres unmarked) [Compound C45, 7′-cyclopentyl-2′-((4-(4-methylpiperazin-1-yl)phenyl)amino)-5′,7′-dihydrospiro[pyrrolidine-3,6′-pyrrolo[2,3-d]pyrimidin]-2-one] are 6.24 and 0.105 µM.
Consider `CC(C)N1CCN(c2ccc(Nc3ncc4c(n3)N(C3CCCC3)C3(CCNC3=O)C4)cc2)CC1` (centres unmarked) [Compound C46, 7′-cyclopentyl-2′-((4-(4-isopropylpiperazin-1-yl)phenyl)amino)-5′,7′-dihydrospiro[pyrrolidine-3,6′-pyrrolo[2,3-d]pyrimidin]-2-one], for which the pIC50 on CDK6-CYCLIND3 is 6.40. The compound also yielded a half-maximal inhibitory concentration (IC50) at CDK4-CYCLIND1 of 0.0701 µM.
In the same order, the values of `O=C1NCCC12Cc1cnc(Nc3ccc(N4CCNCC4)c(F)c3)nc1N2C1CCCC1` (centres unmarked) [Compound C47, 7′-cyclopentyl-2′-((3-fluoro-4-(piperazin-1-yl)phenyl)amino)-5′,7′-dihydrospiro[pyrrolidine-3,6′-pyrrolo[2,3-d]pyrimidin]-2-one] are 6.75 and 0.0315 µM.
As to `CN1CCN(c2ccc(Nc3ncc4c(n3)N(C3CCCC3)C3(CCNC3=O)C4)cc2F)CC1` (centres unmarked) [Compound C48, 7′-cyclopentyl-2′-((3-fluoro-4-(4-methylpiperazin-1-yl)phenyl)amino)-5′,7′-dihydrospiro[pyrrolidine-3,6′-pyrrolo[2,3-d]pyrimidin]-2-one], the negative logarithm of the IC50 (pIC50) at CDK6-CYCLIND3 was 6.89. Besides, half-maximal inhibition against CDK4-CYCLIND1 (IC50) was put at 0.0161 µM.
As to `CC(C)N1CCN(c2ccc(Nc3ncc4c(n3)N(C3CCCC3)C3(CCNC3=O)C4)cc2F)CC1` (centres unmarked) [Compound C49, 7′-cyclopentyl-2′-((3-fluoro-4-(4-isopropylpiperazin-1-yl)phenyl)amino)-5′,7′-dihydrospiro[pyrrolidine-3,6′-pyrrolo[2,3-d]pyrimidin]-2-one], the pIC50 on CDK6-CYCLIND3 is 6.76. Also, on CDK4-CYCLIND1, the half-maximal inhibitory concentration (IC50) came out at 0.0298 µM.
As to `O=C1NCCC12Cc1cnc(Nc3ccc(N4CCNCC4)cc3F)nc1N2C1CCCC1` (centres unmarked) [Compound C50, 7′-cyclopentyl-2′-((2-fluoro-4-(piperazin-1-yl)phenyl)amino)-5′,7′-dihydrospiro[pyrrolidine-3,6′-pyrrolo[2,3-d]pyrimidin]-2-one], the pIC50 at CDK6-CYCLIND3 is 5.38. The IC50 against CDK4-CYCLIND1 came to 0.888 µM.
In the same order, the values of `CN1CCN(c2ccc(Nc3ncc4c(n3)N(C3CCCC3)C3(CCNC3=O)C4)c(F)c2)CC1` (centres unmarked) [Compound C51, 7′-cyclopentyl-2′-((2-fluoro-4-(4-methylpiperazin-1-yl)phenyl)amino)-5′,7′-dihydrospiro[pyrrolidine-3,6′-pyrrolo[2,3-d]pyrimidin]-2-one] are < 4.52 and > 30 µM.
Regarding `CC(C)N1CCN(c2ccc(Nc3ncc4c(n3)N(C3CCCC3)C3(CCNC3=O)C4)c(F)c2)CC1` (centres unmarked) [Compound C52, 7′-cyclopentyl-2′-((2-fluoro-4-(4-isopropylpiperazin-1-yl)phenyl)amino)-5′,7′-dihydrospiro[pyrrolidine-3,6′-pyrrolo[2,3-d]pyrimidin]-2-one], the negative logarithm of the IC50 (pIC50) on CDK6-CYCLIND3 is < 4.52. Further, the half-inhibitory concentration (IC50) at CDK4-CYCLIND1 is > 30 µM.
As for `O=C1NCCC12Cc1cnc(Nc3ccc(N4CCNCC4)nc3)nc1N2C1CCCC1` (centres unmarked) [Compound C53, 7′-cyclopentyl-2′-((6-(piperazin-1-yl)pyridin-3-yl)amino)-5′,7′-dihydrospiro[pyrrolidine-3,6′-pyrrolo[2,3-d]pyrimidin]-2-one], at CDK6-CYCLIND3, the pIC50 is 6.59. The half-maximal inhibitory concentration (IC50) against CDK4-CYCLIND1 was 0.0658 µM.
Turning to `CN1CCN(c2ccc(Nc3ncc4c(n3)N(C3CCCC3)C3(CCNC3=O)C4)cn2)CC1` (centres unmarked) [Compound C54, 7′-cyclopentyl-2′-((6-(4-methylpiperazin-1-yl)pyridin-3-yl)amino)-5′,7′-dihydrospiro[pyrrolidine-3,6′-pyrrolo[2,3-d]pyrimidin]-2-one], the pIC50 on CDK6-CYCLIND3 was 6.38. On CDK4-CYCLIND1, this compound had a half-maximal inhibitory concentration (IC50) of 0.0926 µM.
Turning to `CC(C)N1CCN(c2ccc(Nc3ncc4c(n3)N(C3CCCC3)C3(CCNC3=O)C4)cn2)CC1` (centres unmarked) [Compound C55, 7′-cyclopentyl-2′-((6-(4-isopropylpiperazin-1-yl)pyridin-3-yl)amino)-5′,7′-dihydrospiro[pyrrolidine-3,6′-pyrrolo[2,3-d]pyrimidin]-2-one], the negative-log IC50 (pIC50) on CDK6-CYCLIND3 is 6.66. For the same compound, at CDK4-CYCLIND1, half-maximal inhibition (IC50) was put at 0.053 µM.
As for `O=C1NCCC12Cc1cnc(Nc3ccc(C4=CCNCC4)cn3)nc1N2C1CCCC1` (centres unmarked) [Compound C56, 7′-cyclopentyl-2′-((1′,2′,3′,6′-tetrahydro-[3,4′-bipyridin]-6-yl)amino)-5′,7′-dihydrospiro[pyrrolidine-3,6′-pyrrolo[2,3-d]pyrimidin]-2-one], the pIC50 at CDK6-CYCLIND3 was 6.10. Also, half-maximal inhibition against CDK4-CYCLIND1 (IC50) was put at 0.372 µM.
Take `CC(C)N1CC=C(c2ccc(Nc3ncc4c(n3)N(C3CCCC3)C3(CCNC3=O)C4)nc2)CC1` (centres unmarked) [Compound C57, 7′-cyclopentyl-2′-((1′-isopropyl-1′,2′,3′,6′-tetrahydro-[3,4′-bipyridin]-6-yl)amino)-5′,7′-dihydrospiro[pyrrolidine-3,6′-pyrrolo[2,3-d]pyrimidin]-2-one]: the negative logarithm of the IC50 (pIC50) at CDK6-CYCLIND3 is 6.02. This compound displayed an IC50 on CDK4-CYCLIND1 of 0.387 µM.
In the case of `O=C1NCCC12Cc1cnc(Nc3ccc(N4CCOCC4)c(F)c3)nc1N2C1CCCC1` (centres unmarked) [Compound C58, 7′-cyclopentyl-2′-((3-fluoro-4-morpholinophenyl)amino)-5′,7′-dihydrospiro[pyrrolidine-3,6′-pyrrolo[2,3-d]pyrimidin]-2-one], at CDK6-CYCLIND3, the negative-log IC50 (pIC50) is 6.03. The concentration for half-maximal inhibition (IC50) against CDK4-CYCLIND1 turned out to be 0.222 µM.
Consider `CN(C)CCOc1ccc(Nc2ncc3c(n2)N(C2CCCC2)C2(CCNC2=O)C3)cc1` (centres unmarked) [Compound C59, 7′-cyclopentyl-2′-((4-(2-(dimethylamino)ethoxy)phenyl)amino)-5′,7′-dihydrospiro[pyrrolidine-3,6′-pyrrolo[2,3-d]pyrimidin]-2-one], for which the negative-log IC50 (pIC50) at CDK6-CYCLIND3 was 6.20. The same compound yielded an IC50 against CDK4-CYCLIND1 of 0.142 µM.
As to `CN(C)CCOc1ccc(Nc2ncc3c(n2)N(C2CCCC2)C2(CCNC2=O)C3)nc1` (centres unmarked) [Compound C60, 7′-cyclopentyl-2′-((5-(2-(dimethylamino)ethoxy)pyridin-2-yl)amino)-5′,7′-dihydrospiro[pyrrolidine-3,6′-pyrrolo[2,3-d]pyrimidin]-2-one], the negative-log IC50 (pIC50) on CDK6-CYCLIND3 is 5.47. The compound also gave an IC50 at CDK4-CYCLIND1 of 1.5 µM.
With `CN(C)CCOc1ccc(Nc2ncc3c(n2)N(C2CCCC2)C2(CCNC2=O)C3)cn1` (centres unmarked) [Compound C61, 7′-cyclopentyl-2′-((6-(2-(dimethylamino)ethoxy)pyridin-3-yl)amino)-5′,7′-dihydrospiro[pyrrolidine-3,6′-pyrrolo[2,3-d]pyrimidin]-2-one], at CDK6-CYCLIND3, the pIC50 is 6.10. On CDK4-CYCLIND1, this compound had an IC50 of 0.19 µM.
Turning to `COc1cc(Nc2ncc3c(n2)N(C2CCCC2)C2(CCNC2=O)C3)ccc1N1CCN(C(C)C)CC1` (centres unmarked) [Compound C62, 7′-cyclopentyl-2′-((4-(4-isopropylpiperazin-1-yl)-3-methoxyphenyl)amino)-5′,7′-dihydrospiro[pyrrolidine-3,6′-pyrrolo[2,3-d]pyrimidin]-2-one], on CDK6-CYCLIND3, the pIC50 is 5.71. The same compound came in with a 50% inhibitory concentration (IC50) at CDK4-CYCLIND1 of 0.288 µM.
In the same order, the values of `Cc1cc(Nc2ncc3c(n2)N(C2CCCC2)C2(CCNC2=O)C3)ccc1N1CCN(C(C)C)CC1` (centres unmarked) [Compound C63, 7′-cyclopentyl-2′-((4-(4-isopropylpiperazin-1-yl)-3-methylphenyl)amino)-5′,7′-dihydrospiro[pyrrolidine-3,6′-pyrrolo[2,3-d]pyrimidin]-2-one] are 6.05 and 0.172 µM.
Regarding `CN(C)C(=O)c1cc2cnc(Nc3ccc(N4CCN(C#N)CC4)cn3)nc2n1C1CCCC1` [Compound C64, 2-((5-(4-cyanopiperazin-1-yl)pyridin-2-yl)amino)-7-cyclopentyl-N,N-dimethyl-7H-pyrrolo[2,3-d]pyrimidine-6-carboxamide], the negative-log IC50 (pIC50) on CDK6-CYCLIND3 was < 4.52. The concentration for half-maximal inhibition (IC50) against CDK4-CYCLIND1 was > 30 µM.
In the same order, the values of `CN1C(=O)CC2(Cc3cnc(Nc4ccc(N5CCNCC5)cn4)nc3N2C2CCCC2)C1=O` (centres unmarked) [Compound C65, 7′-cyclopentyl-1-methyl-2′-((5-(piperazin-1-yl)pyridin-2-yl)amino)-5′,7′-dihydrospiro[pyrrolidine-3,6′-pyrrolo[2,3-d]pyrimidine]-2,5-dione] are 4.81 and 12.3 µM.
In the same order, the values of `CN1CCN(c2ccc(Nc3ncc4c(n3)N(C3CCCC3)C3(CC(=O)N(C)C3=O)C4)nc2)CC1` (centres unmarked) [Compound C66, 7′-cyclopentyl-1-methyl-2′-((5-(4-methylpiperazin-1-yl)pyridin-2-yl)amino)-5′,7′-dihydrospiro[pyrrolidine-3,6′-pyrrolo[2,3-d]pyrimidine]-2,5-dione] are < 4.52 and 29.8 µM.
